The source of these data is paper PMC11232109, “Synthesis, anticancer evaluation of novel hybrid pyrazole-based chalcones, molecular docking, DNA fragmentation, and gene expression: in vitro studies” (RSC Advances, 2024).

For orientation: IC50 means the point on the concentration scale where inhibition reaches its midpoint. A lower IC50 goes with greater potency.

For data set [1], the system named is MCF7 (human breast adenocarcinoma). Description: MTT assay, MCF7. To be noted: for IC50 / cytotoxicity at 100 µg/mL: Homo sapiens; for IC50: 48 hours. Type of data set: cell-based. Here is the method:
(§1) The percentage of the cell viability treated with the newly synthesized compounds was evaluated using MTT assay (3-(4,5-dimethylthiazol-2-yl)-2,5-diphenyl tetrazolium bromide). All the subsequent steps were done in a sterile Laminar flow class II biosafety cabinet (Baker, SG406INT, Sanford, ME, USA). DMEM was used as a suspension medium for breast cancer (MCF7), prostate cancer (PC3), and pancreatic cancer (PACA2), while normal cell line (BJ1) was suspended in DMEM-F12 medium, a 1% antibiotic-antimycotic mixture (10 000 U ml^−1 potassium penicillin, 10 000 μg ml^−1 streptomycin sulfate, and 25 μg ml^−1 amphotericin B), and 1% L-glutamine at 37 °C under 5% CO2.
(§2) Cells were cultured for 10 days and then seeded at a concentration of 10 × 10^4 cells per well in fresh complete growth medium in 96-well microtiter plastic plates at 37 °C for 24 hours under 5% CO2 using a water-jacketed carbon dioxide incubator (Sheldon, TC2323). Media were aspirated, serum-free fresh medium was added, and cells were incubated either alone (negative control) or with different concentrations of the synthesized chalcone derivatives to a final concentration of (100–50–25–12.5–6.25–3.125–0.78 and 1.56 μg ml^−1). After incubation for 48 hours, the medium was aspirated and 40 μl of MTT salt ([…]) was added to each well and incubated for another four hours at 37 °C under 5% CO2. To stop the reaction and dissolve the formed crystals, 200 μl of 10% sodium dodecyl sulfate (SDS) in deionized water was added to each well and incubated overnight at 37 °C.
(§3) The absorbance was then measured at 595 nm and a reference wavelength of 620 nm using a microplate multi-well reader (Bio-Rad Laboratories Inc., model 3350). Statistical significance was tested between the samples and the negative control (cells with vehicle) using an independent t-test using the SPSS 11 program. DMSO was the vehicle used for the dissolution of the synthesized chalcones, and its final concentration on the cells was less than 0.2%. The percentage of change in viability was calculated according to the formula: ((reading of extract/reading of negative control) − 1) × 100. A Probit analysis was carried out for the determination of IC50 using the SPSS 11 program.
A general note: Formazan colour is commonly taken as a measure of viable cells.

Data set [2] relates to PACA2 (pancreatic carcinoma). The experiment in a line: MTT assay, PACA2. Type of data set: cell-based. The following applies: for cytotoxicity at 100 µg/mL / IC50: Homo sapiens; for IC50: 48 hours. Here is the method: as §1, §2, §3
Another data set concerns PC3 (prostatic cancer). Description: MTT assay, PC3. The format is cell-based. Here is the method: as §1, §2, §3
The nature of data set [3]: MTT assay, normal cell line BJ1. The format is cell-based. The following applies: human, at 100 μg ml^−1, 48 hours, read-out: (%) Mortality of BJ1. On the procedure: as §1, §2, §3
The test system of the next data set is MCF-7. The experiment in a line: Comet assay (DNA damage), breast cancer cell line. Type of data set: cell-based, human. The following applies: for DNA damaged cells% (mean ± SEM): MCF-7, comet assay, −ve 9.63 ± 0.64; for No. of cells, Comets: MCF-7, of 405 cells analyzed; for No. of cells, Class 0 / No. of cells, Class 1 / No. of cells, Class 2 / No. of cells, Class 3: MCF-7, of 405 cells; for No. of cells, Class 0: class 0 = no tail; for No. of cells, Class 1: class 1 = tail length < diameter of nucleus; for No. of cells, Class 2: class 2 = tail length between 1× and 2× the diameter of nucleus; for No. of cells, Class 3: class 3 = tail length > 2× the diameter of nucleus. Here is the method: Olive et al. (1990) used pancreatic and breast cancer cell lines to measure the DNA damage using the comet test.[53] Approximately 1.5 × 10^4 cells were imbedded in 0.75% low-gelling-temperature agarose after trypsin treatment to generate a single-cell suspension, which was then quickly pipetted onto a pre-coated microscope slide. Cell samples were lysed in 0.5% SDS, 30 mM EDTA, pH 8.0, for four hours at 50 °C. Samples were electrophoresed for 25 minutes at 0.6 V cm^−1 after being rinsed overnight at room temperature in Tris/borate/EDTA buffer, pH 8.0. Propidium iodide was then added for staining. A fluorescent microscope equipped with a CCD camera was used to observe the slides, and 150 unique comet photos from each sample were examined to determine the tail moment, DNA content, and percentage of DNA in the tail. To find the fraction of cells with DNA damage that resemble comets in each sample, around 100 cells were analyzed. Based on perceived comet tail length migration and relative proportion of DNA in the nucleus, the non-overlapping cells were randomly chosen and visually assigned a score on an arbitrary scale of 0–3. Class 0 = no detectable DNA damage and no tail; class 1 = tail with a length less than the nucleus diameter; class 2 = tail with length between 1× and 2× the nuclear diameter; and class 3 = tail longer than 2× the nucleus diameter.[54]

Like-named read-outs stand apart in the source and are kept apart here. Marks after values point to notes of the source that are not given here.

The compound `COc1cccc2c1C(=O)c1c(O)c3c(c(O)c1C2=O)C[C@@](O)(C(=O)CO)C[C@@H]3O[C@H]1C[C@H](N)[C@H](O)[C@H](C)O1` [Doxorubicin, reference compound] registered an IC50 in data set [1] (MCF7, MTT) of 48 ± 0.74 µM. In data set [1] (MCF7, at 100 μg ml^−1, 48 hours, MTT, read-out: (%) Mortality of MCF7), the cytotoxicity at 100 µg/mL came out at 100%. Also, the cytotoxicity at 100 µg/mL in data set [2] (PaCa-2, at 100 μg ml^−1, 48 hours, MTT, read-out: (%) Mortality of PACA2) was 100%. For the same compound, the cytotoxicity at 100 µg/mL in the data set on PC3 (prostatic cancer) (Homo sapiens, at 100 μg ml^−1, 48 hours, MTT, read-out: (%) Mortality of PC3) stood at 100%. Besides, the cytotoxicity at 48 h, 100 μg ml^−1 in data set [3] (BJ1 normal skin fibroblasts) is 100%. For the same compound, in the data set with MCF-7 (listed as Dox), the “DNA damaged cells% (mean ± SEM)” value is recorded as 21.98 ± 0.91^b %. Also, in the data set with MCF-7, the “No. of cells, Comets” value is given as 89; the “No. of cells, Class 0” value is 316; the “No. of cells, Class 1” value was determined as 27; the “No. of cells, Class 2” value is on record as 33. For the same compound, the “No. of cells, Class 3” value in the data set on MCF-7 came out at 29.
`Cc1nn(-c2ccccc2)c(C=CC(=O)c2c(-c3cccs3)nn(-c3ccc([N+](=O)[O-])cc3)c2C)c1Cl` [Compound 7d, 3-(4-Chloro-3-methyl-1-phenyl-1H-pyrazol-5-yl)-1-(5-methyl-1-(4-nitrophenyl)-3-(thiophen-2-yl)-1H-pyrazol-4-yl)prop-2-en-1-one]: the cytotoxicity at 100 µg/mL in data set [1] (MCF7, 48 h, at 100 μg ml^−1, 48 hours, MTT, read-out: (%) Mortality of MCF7) fell in the range of 70 to 80%; in data set [2] (PaCa-2, 48 h, at 100 μg ml^−1, 48 hours, MTT, read-out: (%) Mortality of PACA2), 70 to 80%; in the data set on PC3 (prostatic cancer) (Homo sapiens, 48 h, at 100 μg ml^−1, 48 hours, MTT, read-out: (%) Mortality of PC3) it was 70 to 80%. Further, the IC50 amounted to 42.6 ± 0.71 µM in data set [1] (MCF7, MTT); 51.9 ± 0.29 µM in data set [2] (PaCa-2, MTT); 66.9 ± 0.98 µM in the data set with PC3 (prostatic cancer) (Homo sapiens, MTT, 48 hours). Moreover, the cytotoxicity in data set [1] (at 100 μg ml^−1, 48 hours, MTT, read-out: (%) Mortality of MCF7) is 71.2 ± 0.14%; in data set [2] (at 100 μg ml^−1, 48 hours, MTT, read-out: (%) Mortality of PACA2) it was 80.3 ± 19%; with PC3 (prostatic cancer) (at 100 μg ml^−1, 48 hours, MTT, read-out: (%) Mortality of PC3), 70.6 ± 0.97%. Besides, the cytotoxicity at 48 h, 100 μg ml^−1 in data set [3] (BJ1 normal skin fibroblasts) came to 12.3 ± 0.23%. In addition, the “DNA damaged cells% (mean ± SEM)” value with MCF-7 was 25.93 ± 1.08^a %. In the data set on MCF-7, the “No. of cells, Comets” value came out at 105. Further, in the data set with MCF-7, the “No. of cells, Class 0” value amounted to 300. Besides, the “No. of cells, Class 1” value in the data set on MCF-7 worked out at 30. Moreover, in the data set with MCF-7, the “No. of cells, Class 2” value was found to be 41. Besides, in the data set on MCF-7, the “No. of cells, Class 3” value came to 34.
Turning to `Cc1c(C(=O)C=Cc2nn(-c3ccccc3)cc2-c2ccc([N+](=O)[O-])cc2)c(-c2cccs2)nn1-c1ccc([N+](=O)[O-])cc1` [Compound 9e, 1-(5-Methyl-1-(4-nitrophenyl)-3-(thiophen-2-yl)-1H-pyrazol-4-yl)-3-(4-(4-nitrophenyl)-1-phenyl-1H-pyrazol-3-yl)prop-2-en-1-one], the cytotoxicity at 100 µg/mL in data set [1] (MCF7, 48 h, read-out: (%) Mortality of MCF7) worked out at 14.2 ± 0.37%; in data set [2] (PaCa-2, 48 h, read-out: (%) Mortality of PACA2), 100%; with PC3 (prostatic cancer) (Homo sapiens, 48 h, read-out: (%) Mortality of PC3), 5.3 ± 0.94%. Moreover, the IC50 in data set [1] (MCF7, MTT) is 59.3 ± 0.85 µM; in data set [2] (PaCa-2, MTT) it was 27.6 ± 0.33 µM. Besides, the cytotoxicity at 48 h, 100 μg ml^−1 in data set [3] was 5.6 ± 0.55%.
